Key:
Conditions in all cases: in vivo
[1] = tested on: western corn root worm larvae; experiment: Glass bead Y-tube choice test, corn volatiles versus CO2 (Example 19); parameters: species or system Diabrotica virgifera virgifera LeConte
Method: Bioassay Procedure. All bioassays were choice tests conducted using a vertical glass “Y” tube apparatus filled with 3-mm glass beads (Bernklau and Bjostad 1998) (FIG. 62). Volatile compounds were prepared in 35-ml polyethylene syringes (cat no. 106-0490, Sherwood Medical, St. Louis, Mo.) and a syringe pump (Sage Model 355, Fisher Scientific, Pittsburgh, Pa.) was used to provide, slow (1 ml per min) consistent delivery of the compounds into each choice arm of the bioassay apparatus. Twenty newly-hatched larvae (less than 12-hours-old) were used for each bioassay. Non-diapausing larvae were used for all experiments unless otherwise indicated below. For each choice test a minimum of 10 replicates were conducted.
Corn Headspace Versus CO2. Using the glass bead bioassay (Bernklau and Bjostad 1998) the headspace over germinating corn seeds was tested in a choice test against a series of CO2 concentrations to determine if corn volatiles (including CO2) were more attractive to the larvae than CO2 alone. A 35-ml syringe was filled with the headspace over 3-day-old germinating corn seedlings by means of a 25-cm length of slender Teflon tubing inserted into a hole drilled into the cover of the tub containing the corn seedlings.
Three different concentrations of CO2 were tested on the control side of the choice test. In the 1 st test, we used ambient room air on the control side, which contains a lower concentration of CO2 than the corn headspace (approximately 1.0 mmol/mol). In the 2nd test, we used GC-MS-SIM to match the CO2 concentration in the syringe on the control side to be equal to that measured in the syringe containing corn headspace. In the 3rd test, the syringe on the control side of the choice test contained a CO2 concentration twice that measured in the corn headspace. To prepare each of these control concentrations, a 2nd 35-ml polyethylene syringe was partially filled (approximately 5 ml) from a tank containing pure (100%) CO2 using a glass syringe. Headspace from a plastic tub containing only moist germination paper was drawn into the syringe to fill it, mixing the air and CO2 thoroughly at the same time. The gas mixtures in the polyethylene syringes were allowed to equilibrate for 15 minutes, and GC-MS-SIM was used to verify the CO2 concentrations in both syringes prior to each bioassay.
Corn Headspace Versus CO2 with Diapausing Larvae. The larvae used in our studies were from a colony of nondiapausing western corn root worm that has been maintained in our laboratory since 1986. We wished to determine if diapausing western corn root worm larvae would respond differently to corn volatiles than the colony larvae. Using the same method described above, the headspace over germinating corn seeds was tested in a choice test against a series of CO2 concentrations with western corn root worm larvae from a diapausing strain.
Corn Headspace-Coated Glass Beads versus CO2. In the previous experiments, corn volatiles were introduced into the bottom of the Y-tube and carried through the glass beads by the airstream from the syringe pump. We also tested the possibility that some volatile compounds may have been removed from the airstream by coating out on the glass beads on the bottom of the Y-tube where they would not be available for the larvae to detect at the choice point near the middle of the Y-tube. […]

[2] = tested on: Reticulitermes virginicus; experiment: T-tube choice-test behavioral bioassay with CO2
Method: (§1) Behavioral bioassay apparatus: The choice-test bioassay apparatus was constructed from a glass T-tube (5 mm inside diameter, 5 mm stem, with each branch 4.5 cm long). Each branch of the ‘T’ was bent downward (2.5 cm from the junction of the ‘T’) at a 45° angle to form a pitfall trap. A 5 mm NMR cap (cat. no. 100-0050, Drummond Scientific, Broomall, Pa.) with a 1 mm pinhole in it was firmly pushed over the end of each bent branch. A 25 cm length of Teflon tubing (0.8 mm inside diameter) was inserted 3 mm into the hole in each NMR cap and the other end of the tubing was connected to a 35 ml polyethylene syringe (cat. no. 106-0490, Sherwood Medical, St. Louis, Mo.). The two 35-ml syringes were connected to a syringe pump which was adjusted to provide an airflow of 1 ml per min into each choice arm of the bioassay apparatus.
(§2) Mixtures of CO2 and ambient air were tested to determine the termite response to a range of CO2 concentrations. […] The CO2 concentration of the syringes was determined by using GC-MS-SIM analysis (see below) before each bioassay. […]
(§3) Procedure: For bioassays, termite workers were collected from plastic tubs by using a camel's hair brush and were placed into a holding container constructed from a 3 cm length of Teflon tubing (8 mm inside diameter). […] Bioassays were conducted for 15 min, after which the number of termites in each pitfall was recorded. […]

[3] = tested on: Reticulitermes flavipes; experiment: T-tube choice-test behavioral bioassay with CO2
Method: as §1, §2, §3

SMILES: O=C=O [CO2, carbon dioxide]
- role in attraction of larvae to corn roots (conclusion) [1]: the only attractive volatile compound that attracts western corn root worm larvae to corn roots
- CO2 concentration of best attraction [2]: 10 mmol per mol
- CO2 concentration of best attraction [3]: 10 mmol per mol

From patent US20050063956A1, “Method and device for attracting insects” (Colorado State University Research Foundation, priority 1998, published 2005)
